Assay results reported in paper PMC3851574 (Journal of structural biology, 2013).

Target: T1, GCN4-Kar3Cik1 (Kar3Cik1) (Saccharomyces cerevisiae, UniProt P17119)
T1 sequence (P17119 353-729): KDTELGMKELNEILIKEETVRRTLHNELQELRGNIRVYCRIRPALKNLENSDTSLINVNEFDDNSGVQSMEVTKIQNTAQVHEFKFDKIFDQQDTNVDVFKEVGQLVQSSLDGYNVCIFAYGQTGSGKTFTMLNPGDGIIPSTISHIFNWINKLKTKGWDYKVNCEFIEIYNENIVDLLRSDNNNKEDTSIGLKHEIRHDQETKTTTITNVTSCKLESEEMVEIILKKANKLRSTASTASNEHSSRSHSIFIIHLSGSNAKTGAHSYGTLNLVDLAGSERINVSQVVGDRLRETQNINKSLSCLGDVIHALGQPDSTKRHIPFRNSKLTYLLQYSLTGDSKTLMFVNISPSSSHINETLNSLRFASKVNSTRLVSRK
T1 sequence (Q01649 344-594 partner): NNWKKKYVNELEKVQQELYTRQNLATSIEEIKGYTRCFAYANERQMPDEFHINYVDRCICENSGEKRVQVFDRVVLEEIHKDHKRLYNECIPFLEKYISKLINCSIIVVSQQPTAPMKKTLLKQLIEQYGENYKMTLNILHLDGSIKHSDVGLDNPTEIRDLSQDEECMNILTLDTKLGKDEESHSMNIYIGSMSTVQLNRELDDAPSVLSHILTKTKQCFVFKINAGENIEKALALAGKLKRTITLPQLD
Assay: cryo-EM and unidirectional metal shadowing of microtubule decoration
Type: binding
Conditions: 1 mM ADP; bovine brain microtubules; ATPase buffer pH 7.2

Nc1ncnc2c1ncn2[C@@H]1O[C@H](COP(=O)(O)OP(=O)(O)O)[C@@H](O)[C@H]1O [ADP]
cryo-EM and unidirectional metal shadowing of microtubule decoration: Excess ADP significantly lowered the microtubule-binding affinity of Kar3Cik1 in our experiments
